Source: the NIST ThermoML archive (doi:10.1016/j.tca.2016.06.023)

Tests used:
[1] = refractive index (Na D-line) (dimensionless); xn = mol fraction of the nth substance listed; conditions: 81.5 kPa, Liquid, Standard Abbe refractometry
[2] = xn = mol fraction of the nth substance listed; conditions: 81.5 kPa, Liquid, Vibrating tube method

Brc1ccccc1 [bromobenzene] + O=[N+]([O-])c1ccccc1
Conditions	mass density, 293.15 K [kg/m3]	mass density, 303.15 K [kg/m3]	mass density, 313.15 K [kg/m3]	mass density, 323.15 K [kg/m3]	mass density, 333.15 K [kg/m3]	refractive index, 293.15 K	refractive index, 303.15 K	refractive index, 313.15 K	refractive index, 323.15 K	refractive index, 333.15 K
[1], x1 = 0.0998	–	–	–	–	–	1.55317	1.54834	1.54352	1.53852	1.53345
[1], x1 = 0.2013	–	–	–	–	–	1.55394	1.54905	1.54416	1.53909	1.534
[1], x1 = 0.2985	–	–	–	–	–	1.55468	1.54973	1.54477	1.53962	1.53452
[1], x1 = 0.3968	–	–	–	–	–	1.55542	1.55041	1.54538	1.54015	1.53503
[1], x1 = 0.505	–	–	–	–	–	1.55622	1.55115	1.54603	1.54072	1.53559
[1], x1 = 0.5974	–	–	–	–	–	1.5569	1.55177	1.54658	1.5412	1.53605
[1], x1 = 0.6987	–	–	–	–	–	1.55764	1.55245	1.54718	1.54171	1.53654
[1], x1 = 0.8018	–	–	–	–	–	1.55838	1.55313	1.54777	1.54223	1.53704
[1], x1 = 0.8963	–	–	–	–	–	1.55906	1.55375	1.54831	1.54269	1.53748
[1], x1 = 1	–	–	–	–	–	1.55981	1.55442	1.5489	1.54319	1.53742
[2], x1 = 0.0998	1232.31	1221.95	1211.59	1201.25	1190.87	–	–	–	–	–
[2], x1 = 0.2013	1262.07	1251.35	1240.6	1229.85	1219.06	–	–	–	–	–
[2], x1 = 0.2985	1290.56	1279.49	1268.39	1257.29	1246.12	–	–	–	–	–
[2], x1 = 0.3968	1319.31	1307.88	1296.44	1284.95	1273.45	–	–	–	–	–
[2], x1 = 0.505	1350.9	1339.07	1327.25	1315.36	1303.45	–	–	–	–	–
[2], x1 = 0.5974	1377.81	1365.65	1353.48	1341.27	1329.01	–	–	–	–	–
[2], x1 = 0.6987	1407.3	1394.76	1382.18	1369.62	1357.01	–	–	–	–	–
[2], x1 = 0.8018	1437.33	1424.41	1411.45	1398.53	1385.53	–	–	–	–	–
[2], x1 = 0.8963	1464.97	1451.69	1438.42	1425.19	1411.84	–	–	–	–	–
[2], x1 = 1	1495.52	1481.97	1468.41	1454.85	1441.22	–	–	–	–	–

Clc1ccccc1 [chlorobenzene] + O=[N+]([O-])c1ccccc1
Conditions	mass density, 293.15 K [kg/m3]	mass density, 303.15 K [kg/m3]	mass density, 313.15 K [kg/m3]	mass density, 323.15 K [kg/m3]	mass density, 333.15 K [kg/m3]	refractive index, 293.15 K	refractive index, 303.15 K	refractive index, 313.15 K	refractive index, 323.15 K	refractive index, 333.15 K
[1], x1 = 0.1792	–	–	–	–	–	1.54704	1.54217	1.53739	1.53251	1.52761
[1], x1 = 0.2018	–	–	–	–	–	1.54638	1.5415	1.53671	1.53184	1.52695
[1], x1 = 0.2994	–	–	–	–	–	1.54356	1.53864	1.53383	1.52896	1.52412
[1], x1 = 0.3967	–	–	–	–	–	1.54078	1.53584	1.531	1.52612	1.52129
[1], x1 = 0.491	–	–	–	–	–	1.53813	1.53317	1.52829	1.52338	1.51851
[1], x1 = 0.5425	–	–	–	–	–	1.5367	1.53172	1.52682	1.52186	1.51697
[1], x1 = 0.6479	–	–	–	–	–	1.53381	1.52879	1.52381	1.51876	1.51377
[1], x1 = 0.7553	–	–	–	–	–	1.53092	1.52581	1.52072	1.51554	1.5104
[1], x1 = 0.8748	–	–	–	–	–	1.52777	1.52252	1.51723	1.51185	1.50652
[1], x1 = 1	–	–	–	–	–	1.52455	1.51902	1.51346	1.50781	1.50223
[2], x1 = 0.1792	1186.15	1176.1	1166.03	1155.95	1145.83	–	–	–	–	–
[2], x1 = 0.2018	1184.02	1173.95	1163.86	1153.76	1143.62	–	–	–	–	–
[2], x1 = 0.2994	1174.79	1164.64	1154.47	1144.27	1134.02	–	–	–	–	–
[2], x1 = 0.3967	1165.55	1155.32	1145.05	1134.75	1124.4	–	–	–	–	–
[2], x1 = 0.491	1156.55	1146.24	1135.88	1125.49	1115.04	–	–	–	–	–
[2], x1 = 0.5425	1151.59	1141.23	1130.83	1120.39	1109.89	–	–	–	–	–
[2], x1 = 0.6479	1141.41	1130.96	1120.45	1109.9	1099.31	–	–	–	–	–
[2], x1 = 0.7553	1130.91	1120.36	1109.75	1099.09	1088.41	–	–	–	–	–
[2], x1 = 0.8748	1119.07	1108.4	1097.7	1086.93	1076.14	–	–	–	–	–
[2], x1 = 1	1106.49	1095.71	1084.86	1073.96	1063.01	–	–	–	–	–
